Laboratory results published in patent US11149030B2, “Plants having increased tolerance to herbicides” (BASF AGRO B.V., priority 2016, dated 2021).
Values joined by “and” are separate entries in the source; they are usually repeats but may differ in a detail not shown here. Equal values may be shown once.

Assays:
[1] = test system: transgenic T2 Arabidopsis plants; assay: Greenhouse spray of transgenic T2 Arabidopsis plants, herbicide injury 0 to 100% phytotox rating (Table A); format: in vivo; conditions: 14 days after treatment
Experimental: Additionally, transgenic T2 Arabidopsis plants are tested for improved tolerance to herbicides in greenhouse studies with the following herbicides: methyl 2-[2-chloro-5-[3-chloro-5-(trifluoromethyl)-2-pyridyl]-4-fluoro-phenoxy]-2-methoxy-acetate, and photosynthesis inhibitor diuron as negative control.
Table A: Transgenic T2 Arabidopsis plants, four weeks old, were sprayed in the greenhouse with the indicated amount of compound+1% (v/v) MSO. Herbicide injury was evaluated 14 days after treatment with a 0 to 100% phytotox rating scale where 0 is no injury relative to an unsprayed wild type check and 100% is completely dead.

[2] = test system: T2 maize events expressing the indicated Amaranthus PPO2 variant transgene; assay: Maize whole plant PPO inhibitor tolerance testing, injury 0-9 point scale (Table B); format: in vivo; conditions: V2 stage, 3 days after treatment, individual plants
Experimental: Immature embryos are transformed according to the procedure outlined in Peng et al. (WO2006/136596). Plants are tested for the presence of the T-DNA by Taqman analysis with the target being the nos terminator which is present in all constructs. Healthy looking plants are sent to the greenhouse for hardening and subsequent spray testing. The plants are individually transplanted into MetroMix 360 soil in 4″ pots. Once in the greenhouse (day/night cycle of 27° C./21° C. with 14 hour day length supported by 600 W high pressure sodium lights), they are allowed to grow for 14 days. […] 200 g ai/ha saflufenacil+1.0% v/v methylated seed oil (MSO) and/or 25-200 g ai/ha 1,5-dimethyl-6-thioxo-3-(2,2,7-trifluoro-3-oxo-4-(prop-2-ynyl)-3,4-dihydro-2H-benzo[b][1,4]oxazin-6-yl)-1,3,5-triazinane-2,4-dione (CAS 1258836-72-4) plus 1% MSO. Other PPO inhibiting herbicides are also tested in a similar fashion for confirming cross resistance: flumioxazin, butafenacil, acifluorfen, lactofen, bifenox, sulfentrazone, methyl 2-[2-chloro-5-[3-chloro-5-(trifluoromethyl)-2-pyridyl]-4-fluoro-phenoxy]-2-methoxy-acetate, ethyl 2-[2-chloro-5-[3-chloro-5-(trifluoromethyl)-2-pyridyl]-4-fluoro-phenoxy]-2-methoxy-acetate, prop-2-ynyl 2-[2-chloro-5-[3-chloro-5-(trifluoromethyl)-2-pyridyl]-4-fluoro-phenoxy]-2-methoxy-acetate and photosynthesis inhibitor diuron as negative control. […] […] The top survivors are transplanted into gallon pots filled with Metro Mix 360 for seed production.

Structure (SMILES): COC(=O)C(OC)Oc1cc(-c2ncc(C(F)(F)F)cc2Cl)c(F)cc1Cl (stereo not drawn) [methyl 2-[2-chloro-5-[3-chloro-5-(trifluoromethyl)-2-pyridyl]-4-fluoro-phenoxy]-2-methoxy-acetate]
- Herbicide injury, 0 to 100% phytotox rating ([1]; construct AMATU_PPO2 R128A_F420V, 150 g ai/ha + 1% (v/v) MSO): 73%
- Herbicide injury, 0 to 100% phytotox rating ([1]; construct AMATU_PPO2 R128I_F420V, 50 g ai/ha + 1% (v/v) MSO): 64%
- Herbicide injury, 0 to 100% phytotox rating ([1]; construct AMATU_PPO2 R128I_F420V, 100 g ai/ha + 1% (v/v) MSO): 66%
- Herbicide injury, 0 to 100% phytotox rating ([1]; construct AMATU_PPO2 R128I_F420V, 200 g ai/ha + 1% (v/v) MSO): 80%
- Herbicide injury, 0 to 100% phytotox rating ([1]; construct AMATU_PPO2 R128L_F420L, 50 g ai/ha + 1% (v/v) MSO): 18%
- Herbicide injury, 0 to 100% phytotox rating ([1]; construct AMATU_PPO2 R128L_F420L, 100 g ai/ha + 1% (v/v) MSO): 30%
- Herbicide injury, 0 to 100% phytotox rating ([1]; construct AMATU_PPO2 R128L_F420L, 200 g ai/ha + 1% (v/v) MSO): 56%
- Herbicide injury, 0 to 100% phytotox rating ([1]; construct AMATU_PPO2 R128M_F420I, 50 g ai/ha + 1% (v/v) MSO): 63%
- Herbicide injury, 0 to 100% phytotox rating ([1]; construct AMATU_PPO2 R128M_F420I, 100 g ai/ha + 1% (v/v) MSO): 83%
- Herbicide injury, 0 to 100% phytotox rating ([1]; construct AMATU_PPO2 R128M_F420I, 200 g ai/ha + 1% (v/v) MSO): 91%
- Herbicide injury, 0 to 100% phytotox rating ([1]; construct AMATU_PPO2 R128M_F420L, 50 g ai/ha + 1% (v/v) MSO): 30%
- Herbicide injury, 0 to 100% phytotox rating ([1]; construct AMATU_PPO2 R128M_F420L, 100 g ai/ha + 1% (v/v) MSO): 60%
- Herbicide injury, 0 to 100% phytotox rating ([1]; construct AMATU_PPO2 R128M_F420L, 200 g ai/ha + 1% (v/v) MSO): 73%
- Herbicide injury, 0 to 100% phytotox rating ([1]; construct AMATU_PPO2 R128M_F420M, 50 g ai/ha + 1% (v/v) MSO): 100%
- Herbicide injury, 0 to 100% phytotox rating ([1]; construct AMATU_PPO2 R128M_F420M, 100 g ai/ha + 1% (v/v) MSO): 85%
- Herbicide injury, 0 to 100% phytotox rating ([1]; construct AMATU_PPO2 R128M_F420M, 200 g ai/ha + 1% (v/v) MSO): 100%
- Herbicide injury, 0 to 100% phytotox rating ([1]; construct AMATU_PPO2 R128M_F420V, 50 g ai/ha + 1% (v/v) MSO): 64%
- Herbicide injury, 0 to 100% phytotox rating ([1]; construct AMATU_PPO2 R128M_F420V, 100 g ai/ha + 1% (v/v) MSO): 75%
- Herbicide injury, 0 to 100% phytotox rating ([1]; construct AMATU_PPO2 R128M_F420V, 200 g ai/ha + 1% (v/v) MSO): 93%
- Herbicide injury, 0 to 100% phytotox rating ([1]; construct Arabidopsis PPO1 S305L_Y426M, 50 g ai/ha + 1% (v/v) MSO): 49%
- Herbicide injury, 0 to 100% phytotox rating ([1]; construct Arabidopsis PPO1 S305L_Y426M, 100 g ai/ha + 1% (v/v) MSO): 100%
- Herbicide injury, 0 to 100% phytotox rating ([1]; construct Arabidopsis PPO1 S305L_Y426M, 150 g ai/ha + 1% (v/v) MSO): 100%
- Herbicide injury, 0 to 100% phytotox rating ([1]; construct CHLSP_PPO_wt_tpFNR (CHLSP_PPO SEQ ID NO: 256), 50 g ai/ha + 1% (v/v) MSO): 91%
- Herbicide injury, 0 to 100% phytotox rating ([1]; construct CHLSP_PPO_wt_tpFNR (CHLSP_PPO SEQ ID NO: 256), 100 g ai/ha + 1% (v/v) MSO): 97%
- Herbicide injury, 0 to 100% phytotox rating ([1]; construct CHLSP_PPO_wt_tpFNR (CHLSP_PPO SEQ ID NO: 256), 200 g ai/ha + 1% (v/v) MSO): 95%
- Herbicide injury, 0 to 100% phytotox rating ([1]; construct OPITE_PPO_wt_tpFNR (OPITE_PPO SEQ ID NO: 249), 50 g ai/ha + 1% (v/v) MSO): 100%
- Herbicide injury, 0 to 100% phytotox rating ([1]; construct OPITE_PPO_wt_tpFNR (OPITE_PPO SEQ ID NO: 249), 100 g ai/ha + 1% (v/v) MSO): 100%
- Herbicide injury, 0 to 100% phytotox rating ([1]; construct OPITE_PPO_wt_tpFNR (OPITE_PPO SEQ ID NO: 249), 200 g ai/ha + 1% (v/v) MSO): 100%
- Herbicide injury, 0 to 100% phytotox rating ([1]; construct hemG_tp_FNR (SEQ ID NO: 245), 50 g ai/ha + 1% (v/v) MSO): 96%
- Herbicide injury, 0 to 100% phytotox rating ([1]; construct hemG_tp_FNR (SEQ ID NO: 245), 100 g ai/ha + 1% (v/v) MSO): 100%
- Herbicide injury, 0 to 100% phytotox rating ([1]; construct hemG_tp_FNR (SEQ ID NO: 245), 200 g ai/ha + 1% (v/v) MSO): 99%
- Herbicide injury, 0 to 100% phytotox rating ([1]; construct hemG_tp_long AMATU (SEQ ID NO: 246), 50 g ai/ha + 1% (v/v) MSO): 68%
- Herbicide injury, 0 to 100% phytotox rating ([1]; construct hemG_tp_long AMATU (SEQ ID NO: 246), 100 g ai/ha + 1% (v/v) MSO): 75%
- Herbicide injury, 0 to 100% phytotox rating ([1]; construct hemG_tp_long AMATU (SEQ ID NO: 246), 200 g ai/ha + 1% (v/v) MSO): 79%
- Herbicide injury, 0 to 100% phytotox rating ([1]; non transformed Arabidopsis, 50 g ai/ha + 1% (v/v) MSO): 100%
- Herbicide injury, 0 to 100% phytotox rating ([1]; non transformed Arabidopsis, 100 g ai/ha + 1% (v/v) MSO): 100%
- Herbicide injury, 0 to 100% phytotox rating ([1]; non transformed Arabidopsis, 150 g ai/ha + 1% (v/v) MSO): 100%
- Herbicide injury, 0 to 100% phytotox rating ([1]; non transformed Arabidopsis, 200 g ai/ha + 1% (v/v) MSO): 100%
- injury on a 0-9 point scale ([2]; maize T2, transgene L397D_F420M, 25 g ai/ha + 1% v/v MSO): 0 (2×) and 3 and 1
- injury on a 0-9 point scale ([2]; maize T2, transgene L397D_F420M, 50 g ai/ha + 1% v/v MSO): 0 (2×) and 1 (2×)
- injury on a 0-9 point scale ([2]; maize T2, transgene L397D_F420M, 100 g ai/ha + 1% v/v MSO): 0 (3×) and 1
- injury on a 0-9 point scale ([2]; maize T2, transgene L397D_F420M, 200 g ai/ha + 1% v/v MSO): 0 (2×) and 2 and 1
- injury on a 0-9 point scale ([2]; maize T2, transgene L397E_F420M, 25 g ai/ha + 1% v/v MSO): 9 (2×) and 2 and 0
- injury on a 0-9 point scale ([2]; maize T2, transgene L397E_F420M, 50 g ai/ha + 1% v/v MSO): 0 and 9 (2×) and 1
- injury on a 0-9 point scale ([2]; maize T2, transgene L397E_F420M, 100 g ai/ha + 1% v/v MSO): 4 and 1 and 0
- injury on a 0-9 point scale ([2]; maize T2, transgene L397E_F420M, 200 g ai/ha + 1% v/v MSO): 0 and 6 (2×) and 5
- injury on a 0-9 point scale ([2]; maize T2, transgene R128A_F420I, 25 g ai/ha + 1% v/v MSO): 0 (2×) and 1 (2×)
- injury on a 0-9 point scale ([2]; maize T2, transgene R128A_F420I, 50 g ai/ha + 1% v/v MSO): 2 and 1 (2×) and 0
- injury on a 0-9 point scale ([2]; maize T2, transgene R128A_F420I, 100 g ai/ha + 1% v/v MSO): 0 (2×) and 1 (2×)
- injury on a 0-9 point scale ([2]; maize T2, transgene R128A_F420I, 200 g ai/ha + 1% v/v MSO): 1 (3×) and 0
- injury on a 0-9 point scale ([2]; maize, Non transgenic, 25 g ai/ha + 1% v/v MSO): 8 and 9 (3×)
- injury on a 0-9 point scale ([2]; maize, Non transgenic, 50 g ai/ha + 1% v/v MSO): 9
- injury on a 0-9 point scale ([2]; maize, Non transgenic, 100 g ai/ha + 1% v/v MSO): 9
- injury on a 0-9 point scale ([2]; maize, Non transgenic, 200 g ai/ha + 1% v/v MSO): 9
